Results from patent US20240246916A1, “7-NITRO-8-HYDROXYQUINOLINE DERIVATIVES, PREPARATION METHOD THEREFORE AND MEDICAL USE THEREOF” (Jiangsu Yahong Meditech Co., Ltd., priority 2021, published 2024).
pIC50: −log10 of the molar value. Converted amounts (≈) assume the structure as drawn.

Experiments:
Format in all cases: cell-based
[1] = test system: Endothelial cell line HUVEC; assay: Inhibitory activity on cells, CellTiter-Glo viability, HUVEC; details: Homo sapiens, 72 hours treatment
Description: (§1) HUVEC (purchased from Allcells Biological Technology (Shanghai) Co., Ltd.); UM-UC-3 (ATCC); LNCaP (ATCC); RM-1 (purchased from Nanjing Cobioer Biosciences Co., Ltd.) (1) On the first day, the cells were seeded in a 96-well plate, and the previous medium was poured off. 5 mL of DPBS was added to wash the cells, and then removed by a pipette and discarded. Then, 1 mL of trypsin (0.25%) was added, and the plate was placed in a cell culture incubator at 37 °C, 5% CO2 for digestion, and taken out after about 2 to 5 minutes. New corresponding medium was added, and pipetted to resuspend the cells evenly, and the cells were then counted with an automated cell counter. Regarding HUVEC, the medium used was endothelial cell complete medium; regarding UM-UC-3, the medium used was 89 v % EMEM+10 v % fetal bovine serum+1 v % penicillin-streptomycin double anti-body; regarding LNcaP, the medium used was 89 v % RPM11640+10 v % fetal bovine serum+1 v % penicillin-streptomycin double anti-body; and regarding RM1, the medium used was 89 v % DMEM+10 v % fetal bovine serum+1 v % penicillin-streptomycin double anti-body. (2) HUVEC cells were seeded in columns 1 to 11 of a 96-well plate (Corning, Cat. No. 3610) at a density of 2000 cells per well in 100 μL of medium, and the medium free of cell was added to the wells of column 12. The other three types of cells were also seeded, wherein UM-UC-3 and RM-1 cells were seeded at a density of 3000 cells per well, and LNCap cells were seeded at a density of 5000 cells per well. Then, the plate was placed in an incubator at 37° C., 5% CO2 for 24 hours. (3) On the second day, the compounds of the present invention and the reference drug nitroxoline (obtained according to the preparation method disclosed in the prior art) were diluted in gradient (2.5 folds, started at 100 μmol) to obtain 8 dose points (there were a total of 8 columns of wells; the first column of wells had the highest concentration, the concentration decreased in turn, and the last column of wells had the lowest concentration). 10 μL of the compound diluted in gradient was added to the 100 μL of cells in column 1 to column 10 with an 8-channel pipette. 10 μL of the corresponding medium containing 0.33 v % DMSO was added to column 11 and column 12. The plate was incubated in an incubator at 37° C., 5% CO2 for 72 hours (note: column 11 was used as MAX well with cells and no compounds; and column 12 was used as MIN well with no cells and no compounds). (4) After treating with the compounds of the present invention for 72 hours, the cell viability detection reagents in the above CellTiter-Glo® assay kit were added to the 96-well plate at 50 μL per well according to the instructions. The plate was shaken on a shaker in the dark for 5 to 10 minutes, and then the cell activity was determined by a multifunctional microplate reader. Finally, the growth inhibition of the compounds of the present invention on the cells was plotted by XLFIT 5.3 software, and the IC50 values of the compounds of the present invention were calculated.

[2] = test system: Bladder cancer cell line UM-UC-3; assay: Inhibitory activity on cancer cells, CellTiter-Glo viability, UM-UC-3; details: Homo sapiens, UMUC3, 72 hours treatment
Description: as §1

[3] = test system: Escherichia coli (carbapenem-resistant clinical isolate; ATCC25922); assay: MIC by micro broth dilution (CLSI), Escherichia coli; details: Escherichia coli; for MIC50 / MIC90: ATCC25922, Clinical strain; for MIC50: read-out: MIC50; for MIC90: read-out: MIC90; for MIC: Standard strain ATCC25922, read-out: MIC
Summary of the method: (§2)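 CLSI broth microdilution in cation-adjusted Mueller-Hinton broth, compounds in DMSO at 128 to 0.06 mg/L. Inoculum 10^5 CFU/mL from 0.5 McFarland suspensions diluted 100-fold; 35±2 °C, 20 h in air. Clinical isolates plus ATCC/NCTC quality-control strains; interpretation per CLSI 2019 M100.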

[4] = test system: Prostate cancer cell line LNcaP; assay: Inhibitory activity on cancer cells, CellTiter-Glo viability, LNcaP; details: Homo sapiens, 72 hours treatment
Description: as §1

[5] = test system: Acinetobacter baumannii (carbapenem-resistant clinical isolates; ATCC19606); assay: MIC by micro broth dilution (CLSI), Acinetobacter baumannii; details: Acinetobacter baumannii; for MIC50 / MIC90: ATCC19606, Clinical strain; for MIC50: read-out: MIC50; for MIC90: read-out: MIC90; for MIC: Standard strain ATCC19606, read-out: MIC
Summary of the method: as §2

[6] = test system: Staphylococcus aureus (methicillin-resistant and sensitive clinical isolates; ATCC29213); assay: MIC by micro broth dilution (CLSI), Staphylococcus aureus; details: for MIC50 / MIC90: Clinical strain; for MIC50: read-out: MIC50; for MIC90: read-out: MIC90; for MIC: Standard strain ATCC29213, read-out: MIC
Summary of the method: as §2

[7] = test system: Mouse prostate cancer cell line RM1; assay: Inhibitory activity on cancer cells, CellTiter-Glo viability, RM1; details: 72 hours treatment
Description: as §1

SMILES | pIC50 [1] | pIC50 [2] | MIC50 [3] | MIC90 [3] | MIC [3] | pIC50 [4] | MIC50 [5] | MIC90 [5] | MIC [5] | MIC50 [6] | MIC90 [6] | MIC [6] | pIC50 [7]
CN(C)c1ccnc2c(O)c([N+](=O)[O-])ccc12 [Example 17, 4-(Dimethylamino)-7-nitroquinolin-8-ol] | 4.56 | 4.77 | 64 µg/mL (≈ 274 µM) | 64 µg/mL (≈ 274 µM) | 128 µg/mL (≈ 549 µM) | 4.63 | 128 µg/mL (≈ 549 µM) | 128 µg/mL (≈ 549 µM) | 128 µg/mL (≈ 549 µM) | 128 µg/mL (≈ 549 µM) | 128 µg/mL (≈ 549 µM) | 128 µg/mL (≈ 549 µM) | 
CN1CCN(c2ccnc3c(O)c([N+](=O)[O-])ccc23)CC1 [Example 18, 4-(4-Methylpiperazinyl)-7-nitroquinolin-8-ol] | 4.19 | 4.88 | 128 µg/mL (≈ 444 µM) | 128 µg/mL (≈ 444 µM) | 128 µg/mL (≈ 444 µM) | 4.67 | 128 µg/mL (≈ 444 µM) | 128 µg/mL (≈ 444 µM) | 128 µg/mL (≈ 444 µM) | 128 µg/mL (≈ 444 µM) | 128 µg/mL (≈ 444 µM) | 128 µg/mL (≈ 444 µM) | 
CC1CCCCN1c1ccnc2c(O)c([N+](=O)[O-])ccc12 (stereo not shown) [Example 20, 4-(2-Methylpiperidinyl)-7-nitroquinolin-8-ol] | 5.25 | 5.36 |  |  |  | 5.48 |  |  |  |  |  |  | 5.17
COc1ccnc2c(O)c([N+](=O)[O-])ccc12 [Example 21, 4-Methoxy-7-nitroquinolin-8-ol] | 4.99 | 5.32 | 8 µg/mL (≈ 36.3 µM) | 32 µg/mL (≈ 145 µM) | 8 µg/mL (≈ 36.3 µM) | 5.17 | 32 µg/mL (≈ 145 µM) | 64 µg/mL (≈ 291 µM) | 32 µg/mL (≈ 145 µM) | 4 µg/mL (≈ 18.2 µM) | 8 µg/mL (≈ 36.3 µM) | 8 µg/mL (≈ 36.3 µM) | 5.17
O=[N+]([O-])c1ccc2c(-c3ccccc3)ccnc2c1O [Example 22, 4-Phenyl-7-nitroquinolin-8-ol] | 5.84 | 5.70 | 128 µg/mL (≈ 481 µM) | 128 µg/mL (≈ 481 µM) | > 128 µg/mL | 5.64 | 128 µg/mL (≈ 481 µM) | > 128 µg/mL | 128 µg/mL (≈ 481 µM) | 2 µg/mL (≈ 7.51 µM) | 32 µg/mL (≈ 120 µM) | 2 µg/mL (≈ 7.51 µM) | 5.64
O=[N+]([O-])c1ccc2c(N3CC=CC3)ccnc2c1O [Example 23, 4-(2,5-Dihydro-1H-pyrrolyl)-7-nitroquinolin-8-ol] | < 4.00 | < 4.00 |  |  |  | < 4.00 |  |  |  |  |  |  | < 4.00
CN(C)CCOc1ccnc2c(O)c([N+](=O)[O-])ccc12 [Example 24, 4-(2-(Dimethylamino)ethoxy)-7-nitroquinolin-8-ol] | < 4.00 | 4.32 | 128 µg/mL (≈ 462 µM) | 128 µg/mL (≈ 462 µM) | 128 µg/mL (≈ 462 µM) | 4.30 | 128 µg/mL (≈ 462 µM) | > 128 µg/mL | 128 µg/mL (≈ 462 µM) | 128 µg/mL (≈ 462 µM) | 128 µg/mL (≈ 462 µM) | 128 µg/mL (≈ 462 µM) | 4.27
CN(C)C(=O)N1CCN(c2ccnc3c(O)c([N+](=O)[O-])ccc23)CC1 [Example 25, 4-(8-Hydroxy-7-nitroquinolin-4-yl)-N,N-dimethylpiperazine-1-carboxamide] | 4.32 | 4.35 | 128 µg/mL (≈ 371 µM) | > 128 µg/mL | 32 µg/mL (≈ 92.7 µM) | 4.49 | 128 µg/mL (≈ 371 µM) | > 128 µg/mL | > 128 µg/mL | 16 µg/mL (≈ 46.3 µM) | 16 µg/mL (≈ 46.3 µM) | > 128 µg/mL | 4.33
COC(=O)N1CCN(c2ccnc3c(O)c([N+](=O)[O-])ccc23)CC1 [Example 26] | 4.82 | 4.94 | > 128 µg/mL | > 128 µg/mL | 128 µg/mL (≈ 385 µM) | 4.92 | 64 µg/mL (≈ 193 µM) | > 128 µg/mL | > 128 µg/mL | 16 µg/mL (≈ 48.1 µM) | 64 µg/mL (≈ 193 µM) | 128 µg/mL (≈ 385 µM) | 4.90
O=[N+]([O-])c1ccc2c(F)ccnc2c1O [Example 27, 4-Fluoro-7-nitroquinolin-8-ol] | 5.50 | 5.39 | 128 µg/mL (≈ 615 µM) | > 128 µg/mL | 64 µg/mL (≈ 307 µM) | 4.92 | > 128 µg/mL | > 128 µg/mL | > 128 µg/mL | 64 µg/mL (≈ 307 µM) | 64 µg/mL (≈ 307 µM) | 64 µg/mL (≈ 307 µM) | 4.88
COC(=O)[C@@H]1CCCN1c1ccnc2c(O)c([N+](=O)[O-])ccc12 [Example 28, Methyl (8-hydroxy-7-nitroquinolin-4-yl)-L-prolinate] | 4.76 | 4.37 | > 128 µg/mL | > 128 µg/mL | > 128 µg/mL | 4.48 | 64 µg/mL (≈ 202 µM) | > 128 µg/mL | > 128 µg/mL | 32 µg/mL (≈ 101 µM) | 32 µg/mL (≈ 101 µM) | > 128 µg/mL | 4.77
O=[N+]([O-])c1cc(Cl)c2c(C3CC3)ccnc2c1O [Example 49, 5-Chloro-4-cyclopropyl-7-nitroquinolin-8-ol] | 5.80 | 5.39 |  |  |  | 5.98 |  |  |  |  |  |  | 5.27
CCC(C)OC(=O)N1CCN(c2ccnc3c(O)c([N+](=O)[O-])cc(Cl)c23)CC1 (stereo not shown) [Example 57, (1-Methyl)propyl 4-(5-chloro-8-hydroxy-7-nitroquinolin-4-yl)piperazine-1-carboxylate] | 6.33 | 6.31 |  |  |  | 6.26 |  |  |  |  |  |  | 5.63
CC(C)OC(=O)N1CCN(c2ccnc3c(O)c([N+](=O)[O-])cc(Cl)c23)CC1 [Example 58, Isopropyl 4-(5-chloro-8-hydroxy-7-nitroquinolin-4-yl)piperazine-1-carboxylate] | 6.17 | 5.59 |  |  |  | 6.05 |  |  |  |  |  |  | 6.04
O=[N+]([O-])c1cc(Cl)c2c(OC3CCCCC3)ccnc2c1O [Example 60, 5-Chloro-4-(cyclohexyloxy)-7-nitroquinolin-8-ol] | 6.15 | 5.24 |  |  |  | 6.19 |  |  |  |  |  |  | 5.95
O=[N+]([O-])c1cc(Cl)c2c(N3CCC4(CC3)CC4)ccnc2c1O [Example 63, 5-Chloro-7-nitro-4-(6-azaspiro[2.5]octan-6-yl)quinolin-8-ol] | 5.74 | 5.15 |  |  |  | 5.70 |  |  |  |  |  |  | 5.13
O=[N+]([O-])c1cc(Cl)c2c(F)ccnc2c1O [Example 65, 5-Chloro-4-fluoro-7-nitroquinolin-8-ol] | 5.04 | 4.94 |  |  |  | 4.88 |  |  |  |  |  |  | 4.66
COc1c(C2CC2)cnc2c(O)c([N+](=O)[O-])ccc12 [Example 75, 3-cyclopropyl-4-methoxy-7-nitroquinolin-8-ol] | 5.47 | 5.03 |  |  |  | 5.75 |  |  |  |  |  |  | 5.69
